Assay results reported in patent US10266513B2 (Pfizer Inc., priority 2012, dated 2019).

Legend:
human EGFR kinase domain = human EGFR kinase domain (Homo sapiens (Human), UniProt P00533); assay: Human EGFR LanthaScreen Selectivity Assay (TR-FRET); type: biochemical; conditions: 20 μM ATP
Method: The kinase reaction mixtures were incubated at room temperature for 60 minutes before stopping the kinase activity by the addition of 15 mM EDTA. The extent of peptide phosphorylation by EGFR was detected using a Terbium-conjugated anti-phospho-Tyrosine antibody (Tb-PT66 antibody, invitrogen # PV3557).

[1] = target: human full-length BTK Kinase (Homo sapiens (Human), UniProt Q06187); assay: Human BTK LanthaScreen Assay (TR-FRET); type: biochemical; conditions: 50 μM ATP, FAM-Srctide peptide substrate, read-out: BTK Inhibition IC50
Sequence of human full-length BTK Kinase (Q06187 whole entry): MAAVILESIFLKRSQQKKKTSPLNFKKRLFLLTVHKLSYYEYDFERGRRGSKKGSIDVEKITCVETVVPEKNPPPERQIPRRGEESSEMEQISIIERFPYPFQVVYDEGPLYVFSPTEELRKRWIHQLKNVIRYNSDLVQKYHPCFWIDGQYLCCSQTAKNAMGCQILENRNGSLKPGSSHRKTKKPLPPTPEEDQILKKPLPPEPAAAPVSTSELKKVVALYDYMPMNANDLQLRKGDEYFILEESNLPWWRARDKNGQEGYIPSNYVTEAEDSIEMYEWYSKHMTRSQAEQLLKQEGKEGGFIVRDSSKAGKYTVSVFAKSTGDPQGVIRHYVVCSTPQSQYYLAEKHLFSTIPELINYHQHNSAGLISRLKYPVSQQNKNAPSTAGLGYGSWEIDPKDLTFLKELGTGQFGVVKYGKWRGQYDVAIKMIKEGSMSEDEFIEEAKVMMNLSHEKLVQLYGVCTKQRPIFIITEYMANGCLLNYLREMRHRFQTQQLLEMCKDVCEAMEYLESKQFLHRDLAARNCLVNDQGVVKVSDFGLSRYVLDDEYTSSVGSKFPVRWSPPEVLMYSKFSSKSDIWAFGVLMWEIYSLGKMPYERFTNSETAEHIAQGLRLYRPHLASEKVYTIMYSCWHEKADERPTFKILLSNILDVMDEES
Description: Human BTK LanthaScreen Assay

Human B cells = assay: Human Primary B Cell Proliferation Assay (3H-thymidine incorporation, anti-human IgM stimulated); type: cell-based; conditions: purified human B cells, 50 μg/mL anti-human IgM F(ab')2, 72 hours
Method: Human Primary B Cell Proliferation Assay
Human B cells were purified from buffy coats using the human B cell RosetteSep kit per manufacturer's instructions. Purified cells were resuspended in RPMI-10% HIFCS, 2 mM L-glutamine, 100 U/mL penicillin, 100 μg/ml streptomycin, incubated with compounds for 1 hour at 37° C. and then stimulated with 50 μg/mL anti-human IgM F(ab′)2 for 72 hours. ^3H-thymidine was included in the culture media for the final 8-16 hours. Cells were harvested and ^3H-thymidine incorporation was measured.
Human B cell Proliferation Assay

human whole blood = assay: Human Whole Blood Histamine Assay (anti-IgE induced histamine release); type: cell-based; conditions: heparinized human whole blood, anti-human-IgE 2 μg/ml, histamine release by ELISA; read-out: HWB IC50
Method: Human Whole Blood Histamine Assay
Heparinized human whole blood (200 μl) was plated in 96-well V-bottom assay plates (VWR). Compounds diluted in 100% DMSO (1 μl) were added and incubated at 37° C. for 120 minutes. Anti-human-IgE antibody (KPL) was added to a final concentration of 2 μg/ml and assay plates incubated for 30 minutes at 37° C. Plates were spun at 2000 rpm for 8 minutes and the analyzed for histamine release by ELISA kits (Beckman Coulter).
Inhibition curves and IC50 values are determined using Excel-fit.

Sequence of human EGFR kinase domain (P00533 712-979): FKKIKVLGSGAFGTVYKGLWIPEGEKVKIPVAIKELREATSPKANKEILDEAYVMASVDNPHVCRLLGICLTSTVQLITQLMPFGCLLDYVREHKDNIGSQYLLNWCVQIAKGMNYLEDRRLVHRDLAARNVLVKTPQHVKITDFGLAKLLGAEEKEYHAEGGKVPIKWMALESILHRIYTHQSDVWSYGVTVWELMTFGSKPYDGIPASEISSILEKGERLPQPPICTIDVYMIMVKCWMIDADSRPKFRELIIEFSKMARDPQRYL

`C=CC(=O)N1CCC[C@@H](n2nc(-c3ccc(Oc4ccc(Cl)cc4)cc3)c(C(N)=O)c2N)C1` [Example 130, 1-[(3R)-1-acryloylpiperidin-3-yl]-5-amino-3-[4-(4-chlorophenoxy)phenyl]-1H-pyrazole-4-carboxamide] showed an IC50 (human EGFR kinase domain) of 7.9 nM, an IC50 [1] of 0.17 nM and an IC50 (Human B cells; B-cell) of 0.15 nM. It also gave an IC50 (human whole blood) of 133 nM.
In the case of `N#CN1CCC[C@@H](n2nc(-c3ccc(Oc4ncc(Cl)cc4F)cc3)c(C(N)=O)c2N)C1` [Example 118, (R)-5-amino-3-(4-((5-chloro-3-fluoropyridin-2-yl)oxy)phenyl)-1-(1-cyanopiperidin-3-yl)-1H-pyrazole-4-carboxamide], the IC50 (human EGFR kinase domain) is reported as greater than 50000 nM, the IC50 [1] is reported as 7.6 nM and the IC50 (Human B cells; B-cell) is reported as 29.6 nM. For the same compound, the IC50 (human whole blood) was 50 nM.
For `N#CN1CCC[C@@H](n2nc(-c3ccc(Oc4cccc(C(F)(F)F)n4)cc3)c(C(N)=O)c2N)C1` [Example 116, (R)-5-amino-1-(1-cyanopiperidin-3-yl)-3-(4-((6-(trifluoromethyl)pyridin-2-yl)oxy)phenyl)-1H-pyrazole-4-carboxamide], the IC50 (human EGFR kinase domain) was greater than 26800 nM, the IC50 [1] was 2.6 nM and the IC50 (Human B cells; B-cell) was 14.9 nM. For the same compound, the IC50 (human whole blood) was 41.8 nM.
Compound `C=CC(=O)N1CCC[C@@H](n2nc(-c3ccc(Oc4cccc(C(F)(F)F)n4)cc3)c(C(N)=O)c2N)C1` [Example 161, 1-[(3R)-1-acryloylpiperidin-3-yl]-5-amino-3-(4-{[6-(trifluoromethyl)pyridin-2-yl]oxy}phenyl)-1H-pyrazole-4-carboxamide] has an IC50 (human EGFR kinase domain) of 89.8 nM, an IC50 [1] of 1.2 nM and an IC50 (Human B cells; B-cell) of 3 nM. It also gave an IC50 (human whole blood) of 52.7 nM.
`NC(=O)c1c(-c2ccc(Oc3ccc(Cl)cc3)cc2)nn([C@@H]2CCCN(C(=O)/C=C/CO)C2)c1N` [Example 131, 5-amino-3-[4-(4-chlorophenoxy)phenyl]-1-{(3R)-1-[(2E)-4-hydroxybut-2-enoyl]piperidin-3-yl}-1H-pyrazole-4-carboxamide] gave an IC50 (human EGFR kinase domain) of 2200 nM, an IC50 [1] of 2.3 nM and an IC50 (Human B cells; B-cell) of 1.6 nM. The IC50 (human whole blood) was 259 nM.
For `NC(=O)c1c(-c2ccc(Oc3cccc(C(F)(F)F)n3)cc2)nn([C@@H]2CCCN(C(=O)/C=C/CO)C2)c1N` [Example 162, 5-amino-1-{(3R)-1-[(2E)-4-hydroxybut-2-enoyl]piperidin-3-yl}-3-(4-{[6-(trifluoromethyl)pyridin-2-yl]oxy}phenyl)-1H-pyrazole-4-carboxamide], the IC50 (human EGFR kinase domain) was 14100 nM, the IC50 [1] was 9.8 nM and the IC50 (Human B cells; B-cell) was 103 nM. The IC50 (human whole blood) was 343 nM.
`C=CC(=O)N1CCC[C@H](n2nc(-c3ccc(Oc4ccc(F)cc4F)cc3)c(C(N)=O)c2N)C1` [Example 136, 1-[(3S)-1-acryloylpiperidin-3-yl]-5-amino-3-[4-(2,4-difluorophenoxy)phenyl]-1H-pyrazole-4-carboxamide] gave an IC50 (human EGFR kinase domain) of 214 nM, an IC50 [1] of 7.8 nM and an IC50 (Human B cells; Homo sapiens, B-cell) of 0.44 nM. For the same compound, the IC50 (human whole blood) was 570 nM.
With `C=CC(=O)N1CCC[C@@H](n2nc(-c3ccc(Oc4ccc(Cl)cn4)cc3)c(C(N)=O)c2N)C1` [Example 157, 1-[(3R)-1-acryloylpiperidin-3-yl]-5-amino-3-{4-[(5-chloropyridin-2-yl)oxy]phenyl}-1H-pyrazole-4-carboxamide] the IC50 (human EGFR kinase domain) was 29.7 nM, the IC50 [1] was 1.3 nM and the IC50 (Human B cells; B-cell) was 24.2 nM. It also gave an IC50 (human whole blood) of 98.7 nM.
Work on `N#CN1CCCC(n2nc(-c3ccc(Oc4ccc(Cl)cc4)cc3)c(C(N)=O)c2N)C1` (single isomer, unassigned) [Example 15] yielded an IC50 (human EGFR kinase domain) of 3890 nM, an IC50 [1] of 0.64 nM and an IC50 (Human B cells; B-cell) of 1.7 nM. The IC50 (human whole blood) was 20.6 nM.
Compound `N#CN1CCCC(n2nc(-c3ccc(Oc4ccc(F)cc4F)cc3)c(C(N)=O)c2N)C1` (single isomer, unassigned) [Example 27] has an IC50 (human EGFR kinase domain) of 16800 nM, an IC50 [1] of 1.3 nM and an IC50 (Human B cells; B-cell) of 2.7 nM. For the same compound, the IC50 (human whole blood) was 64.3 nM.
In the case of `N#CN1CCC[C@@H](n2nc(-c3ccc(Oc4ccc(Cl)cn4)cc3)c(C(N)=O)c2N)C1` [Example 110, (R)-5-amino-3-(4-((5-chloropyridin-2-yl)oxy)phenyl)-1-(1-cyanopiperidin-3-yl)-1H-pyrazole-4-carboxamide], the IC50 (human EGFR kinase domain) is reported as greater than 15400 nM, the IC50 [1] is reported as 9.2 nM and the IC50 (Human B cells; B-cell) is reported as 1.6 nM. The IC50 (human whole blood) was 94.7 nM.
`NC(=O)c1c(-c2ccc(Oc3ccc(F)cc3F)cc2)nn([C@@H]2CCCN(C(=O)/C=C/CF)C2)c1N` [Example 145, 5-amino-3-[4-(2,4-difluorophenoxy)phenyl]-1-{(3R)-1-[(2E)-4-fluorobut-2-enoyl]piperidin-3-yl}-1H-pyrazole-4-carboxamide] was tested, and the IC50 (human EGFR kinase domain) was 2180 nM, the IC50 [1] was 2.8 nM and the IC50 (Human B cells; B-cell) was 11.8 nM. For the same compound, the IC50 (human whole blood) was 126 nM.
With `N#CN1CCCC(n2nc(-c3ccc(Oc4ccccc4)cc3)c(C(N)=O)c2N)C1` (single isomer, unassigned) [Example 2] the IC50 (human EGFR kinase domain) was 1710 nM, the IC50 [1] was 0.37 nM and the IC50 (Human B cells; B-cell) was 0.5 nM. For the same compound, the IC50 (human whole blood) was 33.3 nM.
For `NC(=O)c1c(-c2ccc(Oc3ccc(F)cc3F)cc2)nn([C@@H]2CCCN(C(=O)/C=C/CO)C2)c1N` [Example 151, 5-am no-3-[4-(2,4-difluorophenoxy)phenyl]-1-{(3R)-1-[(2E)-4-hydroxybut-2-enoyl]-piperidin-3-yl}-1H-pyrazole-4-carboxamide], the IC50 (human EGFR kinase domain) was 12100 nM, the IC50 [1] was 2.3 nM and the IC50 (Human B cells; B-cell) was 0.22 nM. For the same compound, the IC50 (human whole blood) was 258 nM.
In the case of `C=CC(=O)N1CCC[C@@H](n2nc(-c3ccc(Oc4ccc(F)cc4F)cc3)c(C(N)=O)c2N)C1` [Example 137, 1-[(3R)-1-acryloylpiperidin-3-yl]-5-amino-3-[4-(2,4-difluorophenoxy)phenyl]-1H-pyrazole-4-carboxamide], the IC50 (human EGFR kinase domain) is reported as 25.6 nM, the IC50 [1] is reported as 0.25 nM and the IC50 (Human B cells) is reported as 0.63 nM. The IC50 (human whole blood) was 31.4 nM.
